From the supplement of paper PMC8612539
≈ marks a conversion by molar mass, not a printed value.

Tested on: Escherichia coli
Experiment: minimum inhibitory concentration (MIC)
Protocol: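 Broth microdilution MIC (Sensititre BOPO7F bovine plate, CLSI methods) of 19 antimicrobials against field isolates of P. multocida, M. haemolytica, H. somni (deep nasopharyngeal swabs) and E. coli, Enterococcus spp. (rectal swabs) from weaned dairy heifers. Incubation 16-24 h at 35 C. MIC is the lowest concentration preventing visible growth. Values with <= or > lie at the tested range limits. Trimethoprim-sulfamethoxazole is given as the trimethoprim component of a 1:19 mixture.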

CC1(C)S[C@@H]2[C@H](NC(=O)[C@H](N)c3ccccc3)C(=O)N2[C@H]1C(=O)O [Ampicillin]
Settings	minimum inhibitory concentration [µg/mL]
isolate (source animal id): 8	4 (≈ 11.4 µM)
isolate (source animal id): 9	> 16
isolate (source animal id): 10	2 (≈ 5.72 µM)
isolate (source animal id): 11	4 (≈ 11.4 µM)
isolate (source animal id): 12	> 16
isolate (source animal id): 13	> 16
isolate (source animal id): 14	> 16
isolate (source animal id): 15	2 (≈ 5.72 µM)
isolate (source animal id): 16	4 (≈ 11.4 µM)
isolate (source animal id): 98	4 (≈ 11.4 µM)
isolate (source animal id): 99	4 (≈ 11.4 µM)
isolate (source animal id): 100	2 (≈ 5.72 µM)
isolate (source animal id): 101	1 (≈ 2.86 µM)
isolate (source animal id): 102	2 (≈ 5.72 µM)
isolate (source animal id): 103	> 16
isolate (source animal id): 104	4 (≈ 11.4 µM)
isolate (source animal id): 105	4 (≈ 11.4 µM)
isolate (source animal id): 106	2 (≈ 5.72 µM)
isolate (source animal id): 107	2 (≈ 5.72 µM)
isolate (source animal id): 108	4 (≈ 11.4 µM)
isolate (source animal id): 109	2 (≈ 5.72 µM)
isolate (source animal id): 110	4 (≈ 11.4 µM)
isolate (source animal id): 111	2 (≈ 5.72 µM)
isolate (source animal id): 112	2 (≈ 5.72 µM)
isolate (source animal id): 113	4 (≈ 11.4 µM)
isolate (source animal id): 114	4 (≈ 11.4 µM)
isolate (source animal id): 115	> 16
isolate (source animal id): 116	2 (≈ 5.72 µM)
isolate (source animal id): 117	2 (≈ 5.72 µM)
isolate (source animal id): 118	4 (≈ 11.4 µM)
isolate (source animal id): 119	8 (≈ 22.9 µM)
isolate (source animal id): 120	> 16
isolate (source animal id): 121	2 (≈ 5.72 µM)
isolate (source animal id): 122	1 (≈ 2.86 µM)
isolate (source animal id): 123	2 (≈ 5.72 µM)
isolate (source animal id): 124	4 (≈ 11.4 µM)
isolate (source animal id): 125	2 (≈ 5.72 µM)
isolate (source animal id): 126	8 (≈ 22.9 µM)
isolate (source animal id): 127	2 (≈ 5.72 µM)
isolate (source animal id): 128	> 16
isolate (source animal id): 129	4 (≈ 11.4 µM)
isolate (source animal id): 130	4 (≈ 11.4 µM)
isolate (source animal id): 131	2 (≈ 5.72 µM)
isolate (source animal id): 132	> 16
isolate (source animal id): 133	4 (≈ 11.4 µM)
isolate (source animal id): 134	4 (≈ 11.4 µM)
isolate (source animal id): 135	2 (≈ 5.72 µM)
isolate (source animal id): 136	4 (≈ 11.4 µM)
isolate (source animal id): 137	4 (≈ 11.4 µM)
isolate (source animal id): 138	4 (≈ 11.4 µM)
isolate (source animal id): 139	1 (≈ 2.86 µM)
isolate (source animal id): 140	4 (≈ 11.4 µM)
isolate (source animal id): 141	4 (≈ 11.4 µM)
isolate (source animal id): 142	4 (≈ 11.4 µM)
isolate (source animal id): 143	> 16
isolate (source animal id): 144	> 16
isolate (source animal id): 145	8 (≈ 22.9 µM)
isolate (source animal id): 146	2 (≈ 5.72 µM)
isolate (source animal id): 147	> 16
isolate (source animal id): 148	2 (≈ 5.72 µM)
isolate (source animal id): 149	2 (≈ 5.72 µM)
isolate (source animal id): 150	4 (≈ 11.4 µM)
isolate (source animal id): 151	1 (≈ 2.86 µM)
isolate (source animal id): 152	2 (≈ 5.72 µM)
isolate (source animal id): 153	> 16
isolate (source animal id): 154	4 (≈ 11.4 µM)
isolate (source animal id): 155	2 (≈ 5.72 µM)
isolate (source animal id): 156	> 16
isolate (source animal id): 157	4 (≈ 11.4 µM)
isolate (source animal id): 158	4 (≈ 11.4 µM)
isolate (source animal id): 159	2 (≈ 5.72 µM)
isolate (source animal id): 160	4 (≈ 11.4 µM)
isolate (source animal id): 161	2 (≈ 5.72 µM)
isolate (source animal id): 162	> 16
isolate (source animal id): 163	4 (≈ 11.4 µM)
isolate (source animal id): 164	4 (≈ 11.4 µM)
isolate (source animal id): 165	2 (≈ 5.72 µM)
isolate (source animal id): 166	2 (≈ 5.72 µM)
isolate (source animal id): 167	4 (≈ 11.4 µM)
isolate (source animal id): 168	2 (≈ 5.72 µM)
isolate (source animal id): 169	4 (≈ 11.4 µM)
isolate (source animal id): 170	4 (≈ 11.4 µM)
isolate (source animal id): 171	4 (≈ 11.4 µM)
isolate (source animal id): 172	2 (≈ 5.72 µM)
isolate (source animal id): 173	> 16
isolate (source animal id): 174	> 16
isolate (source animal id): 175	4 (≈ 11.4 µM)
isolate (source animal id): 176	> 16
isolate (source animal id): 177	> 16
isolate (source animal id): 178	4 (≈ 11.4 µM)
isolate (source animal id): 179	4 (≈ 11.4 µM)
isolate (source animal id): 180	4 (≈ 11.4 µM)
isolate (source animal id): 181	2 (≈ 5.72 µM)
isolate (source animal id): 182	2 (≈ 5.72 µM)
isolate (source animal id): 183	4 (≈ 11.4 µM)
isolate (source animal id): 184	4 (≈ 11.4 µM)
isolate (source animal id): 185	4 (≈ 11.4 µM)
isolate (source animal id): 186	4 (≈ 11.4 µM)
isolate (source animal id): 187	> 16
isolate (source animal id): 188	> 16

CC[C@H]1OC(=O)C[C@@H](O)[C@H](C)[C@@H](O[C@@H]2O[C@H](C)[C@@H](O[C@H]3C[C@@](C)(O)[C@@H](O)[C@H](C)O3)[C@H](N(C)C)[C@H]2O)[C@@H](CC=O)C[C@@H](C)C(=O)/C=C/C(C)=C/[C@@H]1CO[C@@H]1O[C@H](C)[C@@H](O)[C@@H](OC)[C@H]1OC [Tylosin]
Settings	minimum inhibitory concentration [µg/mL]
isolate (source animal id): 8	> 32
isolate (source animal id): 9	> 32
isolate (source animal id): 10	> 32
isolate (source animal id): 11	> 32
isolate (source animal id): 12	> 32
isolate (source animal id): 13	> 32
isolate (source animal id): 14	> 32
isolate (source animal id): 15	> 32
isolate (source animal id): 16	> 32
isolate (source animal id): 98	> 32
isolate (source animal id): 99	> 32
isolate (source animal id): 100	> 32
isolate (source animal id): 101	> 32
isolate (source animal id): 102	> 32
isolate (source animal id): 103	> 32
isolate (source animal id): 104	> 32
isolate (source animal id): 105	> 32
isolate (source animal id): 106	> 32
isolate (source animal id): 107	> 32
isolate (source animal id): 108	> 32
isolate (source animal id): 109	> 32
isolate (source animal id): 110	> 32
isolate (source animal id): 111	> 32
isolate (source animal id): 112	> 32
isolate (source animal id): 113	> 32
isolate (source animal id): 114	> 32
isolate (source animal id): 115	> 32
isolate (source animal id): 116	> 32
isolate (source animal id): 117	> 32
isolate (source animal id): 118	> 32
isolate (source animal id): 119	> 32
isolate (source animal id): 120	> 32
isolate (source animal id): 121	> 32
isolate (source animal id): 122	> 32
isolate (source animal id): 123	> 32
isolate (source animal id): 124	> 32
isolate (source animal id): 125	> 32
isolate (source animal id): 126	> 32
isolate (source animal id): 127	> 32
isolate (source animal id): 128	> 32
isolate (source animal id): 129	> 32
isolate (source animal id): 130	> 32
isolate (source animal id): 131	> 32
isolate (source animal id): 132	> 32
isolate (source animal id): 133	> 32
isolate (source animal id): 134	> 32
isolate (source animal id): 135	> 32
isolate (source animal id): 136	> 32
isolate (source animal id): 137	> 32
isolate (source animal id): 138	> 32
isolate (source animal id): 139	> 32
isolate (source animal id): 140	> 32
isolate (source animal id): 141	> 32
isolate (source animal id): 142	> 32
isolate (source animal id): 143	> 32
isolate (source animal id): 144	> 32
isolate (source animal id): 145	> 32
isolate (source animal id): 146	> 32
isolate (source animal id): 147	> 32
isolate (source animal id): 148	> 32
isolate (source animal id): 149	> 32
isolate (source animal id): 150	> 32
isolate (source animal id): 151	> 32
isolate (source animal id): 152	> 32
isolate (source animal id): 153	> 32
isolate (source animal id): 154	> 32
isolate (source animal id): 155	> 32
isolate (source animal id): 156	> 32
isolate (source animal id): 157	> 32
isolate (source animal id): 158	> 32
isolate (source animal id): 159	> 32
isolate (source animal id): 160	> 32
isolate (source animal id): 161	> 32
isolate (source animal id): 162	> 32
isolate (source animal id): 163	> 32
isolate (source animal id): 164	> 32
isolate (source animal id): 165	> 32
isolate (source animal id): 166	> 32
isolate (source animal id): 167	> 32
isolate (source animal id): 168	> 32
isolate (source animal id): 169	> 32
isolate (source animal id): 170	> 32
isolate (source animal id): 171	> 32
isolate (source animal id): 172	> 32
isolate (source animal id): 173	> 32
isolate (source animal id): 174	> 32
isolate (source animal id): 175	> 32
isolate (source animal id): 176	> 32
isolate (source animal id): 177	> 32
isolate (source animal id): 178	> 32
isolate (source animal id): 179	> 32
isolate (source animal id): 180	> 32
isolate (source animal id): 181	> 32
isolate (source animal id): 182	> 32
isolate (source animal id): 183	> 32
isolate (source animal id): 184	> 32
isolate (source animal id): 185	> 32
isolate (source animal id): 186	> 32
isolate (source animal id): 187	> 32
isolate (source animal id): 188	> 32
